These results are taken from ChEMBL document CHEMBL1201862, “PubChem BioAssay data set” (2004).

Active and inactive are the calls of the source.

A short description of assay [1]: HepG2 cell cytotoxicity, dose response, cytotoxicity control, plate reader, dry powder samples (AID 1159569).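 Note: inhibitor potency with signal falling toward the positive control level.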 The class given is functional, cell-based.
Assay [2] in a line: Plasmodium falciparum Dd2 Sybr green parasite growth Measured in Cell-Based and Microorganism Combination System Using Plate Reader - 2153-01_Inhibitor_Dose_DryPowder_Activity_Set3. The class given is functional.
The nature of assay [3]: P. falciparum ATP4 D1247Y mutant growth inhibitors, dose response, NITD609-resistant line, SYBR Green, dry powder (AID 1159571).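 Note: parasites synchronized at ring stage by sorbitol before testing.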 It counts as functional, cell-based.
Assay [4] can be described thus: HepG2 cell cytotoxicity, dose response, cytotoxicity control, cherry-picked samples (AID 1159577). It counts as functional, cell-based.
Assay [5] can be described thus: P. falciparum Dd2 growth inhibitors, dose response, SYBR Green, dry powder samples (AID 1159566).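 Note: potency for growth inhibition with lower SYBR green DNA signal.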 The class given is functional, cell-based.
A short description of assay [6]: P. falciparum 3D7-ScDHODH growth inhibitors, dose response, SYBR Green, dry powder samples (AID 1159570).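 Note: parasite growth measured after 72 hours of compound exposure.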 The class given is functional, cell-based.
Assay [7] can be described thus: P. falciparum Dd2 growth inhibitors, dose response, SYBR Green, cherry-picked samples (AID 1159567). The class given is functional, cell-based.
Assay [8] can be described thus: PAX5 activity inhibitors, dose response, selectivity assay for PAX8 inhibitor project, cell-based, plate reader, dry powder samples (AID 743047).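 Note: HEK293 cells carrying a Pax5 driven CD19 promoter luciferase reporter; potency of inhibitors that lower reporter luminescence.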 The class given is functional.
Assay [9] is described as follows: cytotoxicity dependent on PAX8, dose response, cell-based, plate reader, dry powder (AID 743049). The class given is functional.
Assay [10] in a line: cytotoxicity in OV-90 ovarian cancer cells, dose response, PAX8 inhibitor project, cell-based, plate reader, dry powder, SA8 (AID 743149). It counts as functional.
The nature of assay [11]: cytotoxicity in OVCAR4 cells, dose response, cytotoxicity control for PAX8 inhibitor project, cell-based, plate reader, dry powder, SA11 (AID 743150). It counts as functional. The settings on record: OVCAR-4.
Assay [12] in a line: PAX2 cell-based inhibition, dose response, selectivity assay for PAX8 inhibitor project, plate reader, dry powder samples (AID 743048).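 Note: HEK293 cells carrying a WT1 promoter luciferase reporter driven by expressed Pax2; potency is for inhibition of Pax2 driven reporter signal.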 It counts as functional.
In assay [13] the target is Paired box protein Pax-8 (Homo sapiens, UniProt Q06710). Put plainly: inhibitors of PAX8-driven TPO luciferase reporter, dose response, RMG-I cells, cherry-pick (AID 687027).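 Note: luciferase reporter driven by Pax8 target thyroperoxidase promoter measured by SteadyGlo luminescence.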 The class given is functional, cell-based.
Chain of Paired box protein Pax-8 (Q06710 whole entry): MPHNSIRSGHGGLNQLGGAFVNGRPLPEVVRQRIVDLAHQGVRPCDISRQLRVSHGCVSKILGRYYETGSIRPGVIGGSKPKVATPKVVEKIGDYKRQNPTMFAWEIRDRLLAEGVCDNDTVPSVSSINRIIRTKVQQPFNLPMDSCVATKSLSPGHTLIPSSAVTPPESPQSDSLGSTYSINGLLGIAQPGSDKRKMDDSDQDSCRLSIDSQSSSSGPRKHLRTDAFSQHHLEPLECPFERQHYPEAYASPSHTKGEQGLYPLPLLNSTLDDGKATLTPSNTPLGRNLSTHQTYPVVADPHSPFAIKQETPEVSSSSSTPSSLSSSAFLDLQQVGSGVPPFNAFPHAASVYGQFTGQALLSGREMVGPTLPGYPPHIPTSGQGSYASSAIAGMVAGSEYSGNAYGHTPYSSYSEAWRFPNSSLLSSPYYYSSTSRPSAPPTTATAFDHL
Assay [14] is described as follows: P. falciparum Dd2 growth inhibitors, dose response, SYBR Green, dry powder samples, set 9 (AID 1159568). The class given is functional, cell-based.
Assay [15] in a line: Glucagon-like peptide 1 release potency, NCI-H716 cell line, dose-response, half-maximal inhibitory concentration (AID 1117344). The class given is functional, cell-based.
Assay [16] has as its target T1, Probable nicotinate-nucleotide adenylyltransferase (Staphylococcus aureus (strain N315), UniProt P65502). It counts as functional, Staphylococcus aureus subsp. aureus N315.
Assay [17] can be described thus: half-maximal inhibitory concentration for glucagon-like peptide-1 release, STC-1 cell line, dose-response (AID 1117345). The class given is functional, cell-based.
The target in assay [18] is T2, Streptokinase A (Streptococcus pyogenes serotype M1, UniProt P10520).
T2 sequence (P10520 whole entry): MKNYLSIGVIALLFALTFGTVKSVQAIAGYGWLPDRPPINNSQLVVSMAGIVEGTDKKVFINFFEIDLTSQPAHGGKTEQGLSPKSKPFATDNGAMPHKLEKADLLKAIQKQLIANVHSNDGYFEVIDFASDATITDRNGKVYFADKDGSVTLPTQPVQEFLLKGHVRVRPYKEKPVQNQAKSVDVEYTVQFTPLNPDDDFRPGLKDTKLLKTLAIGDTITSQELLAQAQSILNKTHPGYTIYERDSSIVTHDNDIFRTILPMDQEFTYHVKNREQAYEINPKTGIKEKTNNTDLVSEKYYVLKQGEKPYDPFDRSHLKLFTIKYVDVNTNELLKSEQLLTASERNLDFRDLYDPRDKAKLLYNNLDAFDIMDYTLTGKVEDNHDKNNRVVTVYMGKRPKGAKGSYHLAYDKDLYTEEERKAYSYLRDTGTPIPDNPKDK
Put plainly: S. pyogenes streptokinase expression inhibitors, potency, dose response, plasminogen activation absorbance, OD405 (AID 1914).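 Note: secreted streptokinase activity via plasminogen activation per viability signal from cell pellet.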 It counts as functional, Streptococcus pyogenes M1 GAS.

For assay [19], the target named is T1, Probable nicotinate-nucleotide adenylyltransferase. It counts as functional, Staphylococcus aureus subsp. aureus N315. The following applies: read-out: IC50_Mean.
Assay [20] deals with Streptococcus sp. 'group A'. Kind of assay: growth inhibition of control SK(-) GAS strain, dose response, counter-screen for streptokinase expression inhibitor project, luminescence, kanamycin, BacTiterGlo, confirmation (AID 1900). It counts as functional, organism-based.
Assay [21] relates to Streptococcus. Kind of assay: Group A Streptococcus viability loss, dose response, counter-screen for streptokinase expression inhibitor project, luminescence, BacTiterGlo (AID 1915).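 Note: potency for reduction of bacterial viability or growth.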 The class given is functional, organism-based.
The target of assay [22] is T3, RNA-binding protein pos-1 (Caenorhabditis elegans, UniProt G5EF15).
T3 sequence (G5EF15 whole entry): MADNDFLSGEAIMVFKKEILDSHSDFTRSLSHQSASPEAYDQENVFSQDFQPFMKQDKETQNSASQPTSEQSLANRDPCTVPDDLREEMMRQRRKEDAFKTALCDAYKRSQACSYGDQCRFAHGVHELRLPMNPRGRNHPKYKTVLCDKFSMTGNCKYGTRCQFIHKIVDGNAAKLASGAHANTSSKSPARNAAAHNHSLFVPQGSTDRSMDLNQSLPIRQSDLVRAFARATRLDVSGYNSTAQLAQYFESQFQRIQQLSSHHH
Kind of assay: inhibitors of POS-1/mex-3 RNA binding, dose response, biochemical, fluorescence polarization (AID 1964).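 Note: purified POS-1 fused to maltose binding protein made in E. coli; potency of compounds blocking POS-1 binding to fluorescent RNA.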

Assay [23] addresses RNA-editing ligase 1, mitochondrial (Trypanosoma brucei brucei, UniProt P86926). Put plainly: TbREL1 ligase inhibitors, dose response, biochemical, fluorescence, Trypanosoma brucei (AID 1117295). The class given is functional.
The target in assay [24] is Induced myeloid leukemia cell differentiation protein Mcl-1 (Homo sapiens, UniProt Q07820). It counts as functional.
Chain of Induced myeloid leukemia cell differentiation protein Mcl-1 (Q07820 whole entry): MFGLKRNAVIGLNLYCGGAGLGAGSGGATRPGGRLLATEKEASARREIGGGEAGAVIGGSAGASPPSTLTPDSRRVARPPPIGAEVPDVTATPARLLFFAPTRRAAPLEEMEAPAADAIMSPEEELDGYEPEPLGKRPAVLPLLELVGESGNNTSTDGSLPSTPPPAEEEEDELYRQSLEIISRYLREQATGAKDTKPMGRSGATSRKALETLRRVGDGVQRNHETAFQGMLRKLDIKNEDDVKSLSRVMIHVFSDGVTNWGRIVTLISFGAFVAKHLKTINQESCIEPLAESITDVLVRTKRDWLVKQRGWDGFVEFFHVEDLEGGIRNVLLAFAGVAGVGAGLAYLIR
In assay [25] the target is T4, Protein Tat (Human immunodeficiency virus type 1 group M subtype B (isolate HXB2)(HIV-1), UniProt P04608).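 Note: tat binding to TAR RNA read out by fluorescence polarization.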
T4 sequence (P04608 whole entry): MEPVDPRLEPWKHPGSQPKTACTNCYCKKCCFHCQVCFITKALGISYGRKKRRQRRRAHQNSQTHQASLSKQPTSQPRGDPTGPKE
The class given is functional.

Assay [26] deals with T5, Mannose-6-phosphate isomerase (Homo sapiens, UniProt P34949).
T5 sequence (P34949 whole entry): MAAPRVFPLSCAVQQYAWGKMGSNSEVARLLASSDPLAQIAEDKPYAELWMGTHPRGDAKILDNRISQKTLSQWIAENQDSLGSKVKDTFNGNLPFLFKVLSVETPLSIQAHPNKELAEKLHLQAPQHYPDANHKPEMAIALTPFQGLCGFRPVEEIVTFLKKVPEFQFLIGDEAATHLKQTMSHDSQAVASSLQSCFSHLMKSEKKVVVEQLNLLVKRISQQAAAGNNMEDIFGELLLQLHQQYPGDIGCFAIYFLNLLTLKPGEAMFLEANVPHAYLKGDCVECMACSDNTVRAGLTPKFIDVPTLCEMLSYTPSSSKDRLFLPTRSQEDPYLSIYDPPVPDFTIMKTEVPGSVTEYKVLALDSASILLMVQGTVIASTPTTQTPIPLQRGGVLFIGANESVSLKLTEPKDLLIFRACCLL
Kind of assay: human PMI inhibitors, high substrate, primary screen, biochemical, fluorescence intensity, high mannose 6-phosphate (AID 1220).

Assay [27] has as its target Glutathione-S-transferase (Schistosoma japonicum, UniProt Q26513). Kind of assay: biotin-GST/anti-GST TR-FRET signal inhibitors, dose response, artefact control for Vif-APOBEC3G degradation inhibitor project, biochemical (AID 1117362). The class given is functional. In general terms: Time-resolved FRET reads energy transfer from a long-lived donor to a nearby acceptor.

Assay [28] deals with T5, Mannose-6-phosphate isomerase. Kind of assay: inhibitors of human PMI, primary screen, biochemical, fluorescence intensity, coupled assay (AID 1209).
Assay [29] concerns the target Glucose-6-phosphate 1-dehydrogenase (Homo sapiens, UniProt P11413). Kind of assay: human G6PD enzyme inhibitors, dose response, selectivity assay for P. falciparum G6PD inhibitor project, biochemical, fluorescence (AID 504792). It counts as functional.
In assay [30] the target is Albumin (Bos taurus, UniProt P02769). Put plainly: Counterscreen for inhibitors of T-cell receptor (TCR)-CD3 interaction: Fluorescence-based biochemical high throughput dose response assay to identify inhibitors of T-cell receptor (TCR)-CD3 interaction using a TAMRA-labeled BSA probe. It counts as functional.
Chain of Albumin (P02769 whole entry): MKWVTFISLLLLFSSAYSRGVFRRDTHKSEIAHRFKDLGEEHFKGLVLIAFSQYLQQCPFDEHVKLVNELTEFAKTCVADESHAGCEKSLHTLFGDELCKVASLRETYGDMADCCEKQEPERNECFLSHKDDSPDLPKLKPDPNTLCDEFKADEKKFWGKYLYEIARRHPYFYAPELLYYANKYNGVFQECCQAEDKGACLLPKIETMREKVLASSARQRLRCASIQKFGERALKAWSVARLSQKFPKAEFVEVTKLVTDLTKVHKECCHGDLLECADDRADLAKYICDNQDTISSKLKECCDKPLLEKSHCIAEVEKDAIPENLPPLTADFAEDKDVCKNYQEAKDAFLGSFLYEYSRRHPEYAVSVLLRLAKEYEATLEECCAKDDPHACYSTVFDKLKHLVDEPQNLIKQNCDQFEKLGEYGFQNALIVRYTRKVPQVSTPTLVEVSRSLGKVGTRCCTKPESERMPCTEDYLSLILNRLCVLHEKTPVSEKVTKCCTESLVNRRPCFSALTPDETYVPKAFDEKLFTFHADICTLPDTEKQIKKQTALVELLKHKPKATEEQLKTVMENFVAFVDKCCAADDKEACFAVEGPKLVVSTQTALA
The target in assay [31] is Genome polyprotein (dengue virus type 2, UniProt P29990). Kind of assay: Dengue-2 NS5 methyltransferase inhibitors, primary screen, biochemical, confirmation dose response (AID 588689). The class given is functional.
Chain of Genome polyprotein (P29990 2492-3391 limits assumed): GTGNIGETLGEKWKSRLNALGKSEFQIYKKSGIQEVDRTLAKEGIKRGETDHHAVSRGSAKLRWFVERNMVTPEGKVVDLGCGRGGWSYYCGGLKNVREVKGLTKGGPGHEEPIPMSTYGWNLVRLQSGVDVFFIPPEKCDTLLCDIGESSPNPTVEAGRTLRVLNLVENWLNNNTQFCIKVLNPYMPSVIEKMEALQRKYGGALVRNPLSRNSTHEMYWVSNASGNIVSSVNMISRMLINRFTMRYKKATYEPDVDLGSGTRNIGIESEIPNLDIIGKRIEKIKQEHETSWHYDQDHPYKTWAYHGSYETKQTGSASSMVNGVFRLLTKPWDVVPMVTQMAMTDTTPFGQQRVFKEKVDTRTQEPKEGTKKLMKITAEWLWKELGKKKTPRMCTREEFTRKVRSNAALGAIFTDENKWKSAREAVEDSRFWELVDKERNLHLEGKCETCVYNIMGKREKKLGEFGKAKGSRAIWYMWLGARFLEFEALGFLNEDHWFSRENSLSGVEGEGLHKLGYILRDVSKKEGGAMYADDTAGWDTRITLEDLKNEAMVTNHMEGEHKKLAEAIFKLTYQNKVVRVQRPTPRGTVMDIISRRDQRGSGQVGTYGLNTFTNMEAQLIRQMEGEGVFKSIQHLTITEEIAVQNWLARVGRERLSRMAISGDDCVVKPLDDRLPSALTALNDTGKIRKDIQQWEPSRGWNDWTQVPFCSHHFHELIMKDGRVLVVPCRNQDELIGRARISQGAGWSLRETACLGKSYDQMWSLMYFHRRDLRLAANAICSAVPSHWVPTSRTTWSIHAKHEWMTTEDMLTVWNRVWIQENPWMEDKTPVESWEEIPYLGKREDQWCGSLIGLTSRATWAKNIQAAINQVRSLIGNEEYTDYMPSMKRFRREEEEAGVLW
Assay [32] in a line: cytotoxicity toward HCT116 cells – cell-based, CellTiter-Glo luminescence, IC50, dose response (AID 1117332). The class given is functional. The settings on record: HCT-116.
Assay [33] can be described thus: HeLa 2N DNA content increase, dose response, cell-based, IC50 (AID 1117349). The class given is functional.
Assay [34] in a line: CellTiter-Glo luminescent dose response of DLD-1 viability loss (AID 1117352). The class given is functional.
The nature of assay [35]: cytotoxicity toward HT-29 cells – cell-based, CellTiter-Glo luminescence, IC50, dose response (AID 1117330). It counts as functional. (ATP-based viability assays read luminescence as a measure of living cells.)
A short description of assay [36]: HCT116 cell viability decrease, GSK3B pretreatment – CellTiter-Glo, IC50, dose response (AID 1117339). It counts as functional. The settings on record: HCT-116.
Assay [37] in a line: SNU-C1 cell viability reduction, dose response, CellTiter-Glo luminescence (AID 1117323). The class given is functional, cell-based.
Assay [38] is described as follows: HeLa 4N DNA content increase, dose response, cell-based, IC50 (AID 1117351). The class given is functional.
Assay [39] concerns the target Potassium channel subfamily K member 3 (Homo sapiens, UniProt O14649). Put plainly: TASK1 (KCNK3) potassium channel inhibitors, SAR follow-up, CHO cells, FluxOR thallium flux (AID 652212). The class given is functional.
Assay [40] concerns the target T6, Potassium channel subfamily K member 9 (Homo sapiens, UniProt Q9NPC2). Kind of assay: TASK3 (KCNK9) channel inhibitors, thallium flux, SAR follow-up, selectivity assay for TASK1 inhibitor project, cell-based, FluxOR thallium flux, concentration-response (AID 652211).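 Note: potency is for inhibitors of the channel.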 It counts as functional.
Assay [41] has as its target Potassium channel subfamily K member 3 (Rattus norvegicus, UniProt O54912). Kind of assay: SAR analysis for the identification of selective inhibitors of the two-pore domain potassium channel TASK1(KCNK3):Automated Electrophysiology. It counts as functional.
In assay [42] the target is T6, Potassium channel subfamily K member 9. Kind of assay: KCNK9 (TASK3) current inhibition by patch clamp, SAR follow-up, selectivity assay for TASK1 (KCNK3) inhibitor project, cell-based, automated electrophysiology (AID 652210). It counts as functional. (In general: Patch clamp records ionic current or voltage across a cell membrane.)
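Throughout, for IC50 Mean: confirmatory dose-response retesting of NadD inhibitor hits first found in an ultra-high-throughput screen.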

T6 sequence (Q9NPC2 whole entry, the tested form may be a part): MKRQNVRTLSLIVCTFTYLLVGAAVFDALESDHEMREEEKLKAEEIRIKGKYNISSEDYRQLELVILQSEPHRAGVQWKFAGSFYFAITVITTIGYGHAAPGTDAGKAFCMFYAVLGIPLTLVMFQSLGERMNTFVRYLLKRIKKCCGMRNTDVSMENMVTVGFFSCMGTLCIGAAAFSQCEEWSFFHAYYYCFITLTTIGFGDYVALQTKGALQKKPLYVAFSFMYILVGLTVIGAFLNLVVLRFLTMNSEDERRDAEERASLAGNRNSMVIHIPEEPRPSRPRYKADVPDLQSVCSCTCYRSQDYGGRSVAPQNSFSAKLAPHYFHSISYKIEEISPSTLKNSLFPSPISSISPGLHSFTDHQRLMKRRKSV
T1 sequence (P65502 whole entry): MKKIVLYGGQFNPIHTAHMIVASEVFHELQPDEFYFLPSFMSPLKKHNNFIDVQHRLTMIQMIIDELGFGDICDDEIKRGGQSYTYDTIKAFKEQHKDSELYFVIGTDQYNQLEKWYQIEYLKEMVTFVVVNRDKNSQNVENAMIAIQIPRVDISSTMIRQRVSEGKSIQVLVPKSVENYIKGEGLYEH
Chain of Glutathione-S-transferase (Q26513 whole entry): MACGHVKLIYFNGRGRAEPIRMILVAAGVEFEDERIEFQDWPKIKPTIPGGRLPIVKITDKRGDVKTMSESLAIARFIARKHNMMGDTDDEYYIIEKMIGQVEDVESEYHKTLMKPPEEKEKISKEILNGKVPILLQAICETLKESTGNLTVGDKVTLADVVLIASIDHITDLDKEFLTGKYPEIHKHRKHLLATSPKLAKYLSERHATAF
Chain of Potassium channel subfamily K member 3 (Homo sapiens, UniProt O14649) (O14649 whole entry): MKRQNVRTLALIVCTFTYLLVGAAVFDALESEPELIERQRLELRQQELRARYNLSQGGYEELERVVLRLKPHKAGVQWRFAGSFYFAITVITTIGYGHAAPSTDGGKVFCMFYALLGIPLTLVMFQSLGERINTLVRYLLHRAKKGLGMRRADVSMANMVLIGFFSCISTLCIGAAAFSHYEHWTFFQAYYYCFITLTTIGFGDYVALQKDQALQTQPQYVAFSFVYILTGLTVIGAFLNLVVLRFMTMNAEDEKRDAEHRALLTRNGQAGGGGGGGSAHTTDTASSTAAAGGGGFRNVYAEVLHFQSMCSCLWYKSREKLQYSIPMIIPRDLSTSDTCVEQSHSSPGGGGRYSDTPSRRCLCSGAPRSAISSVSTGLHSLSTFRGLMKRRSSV
Chain of Glucose-6-phosphate 1-dehydrogenase (P11413 whole entry): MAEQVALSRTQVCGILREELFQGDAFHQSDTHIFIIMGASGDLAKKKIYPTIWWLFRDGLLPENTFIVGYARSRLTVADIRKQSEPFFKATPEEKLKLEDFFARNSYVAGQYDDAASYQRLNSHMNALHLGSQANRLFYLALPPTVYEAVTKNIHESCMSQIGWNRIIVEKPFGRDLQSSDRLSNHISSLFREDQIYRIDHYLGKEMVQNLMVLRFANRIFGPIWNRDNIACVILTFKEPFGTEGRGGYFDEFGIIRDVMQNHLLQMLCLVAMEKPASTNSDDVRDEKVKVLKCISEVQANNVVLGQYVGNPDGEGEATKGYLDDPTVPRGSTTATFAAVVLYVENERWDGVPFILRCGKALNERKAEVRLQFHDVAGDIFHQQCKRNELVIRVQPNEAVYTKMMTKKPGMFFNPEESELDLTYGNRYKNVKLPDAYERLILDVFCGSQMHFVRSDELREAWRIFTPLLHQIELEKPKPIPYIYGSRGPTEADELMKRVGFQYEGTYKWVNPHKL
Chain of Potassium channel subfamily K member 3 (Rattus norvegicus, UniProt O54912) (O54912 whole entry, the tested form may be a part): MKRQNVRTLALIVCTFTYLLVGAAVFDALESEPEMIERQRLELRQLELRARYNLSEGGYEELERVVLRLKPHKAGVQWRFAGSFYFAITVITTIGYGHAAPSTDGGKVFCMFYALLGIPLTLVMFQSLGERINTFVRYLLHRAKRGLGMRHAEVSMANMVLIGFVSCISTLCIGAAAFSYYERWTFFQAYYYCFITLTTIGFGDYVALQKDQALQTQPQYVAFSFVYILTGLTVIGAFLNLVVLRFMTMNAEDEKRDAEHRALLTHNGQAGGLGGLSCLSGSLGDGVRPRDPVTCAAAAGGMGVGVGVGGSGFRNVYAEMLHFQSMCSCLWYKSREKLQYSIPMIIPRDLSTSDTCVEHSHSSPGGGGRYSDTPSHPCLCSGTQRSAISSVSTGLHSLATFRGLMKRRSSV
Chain of RNA-editing ligase 1, mitochondrial (P86926 whole entry): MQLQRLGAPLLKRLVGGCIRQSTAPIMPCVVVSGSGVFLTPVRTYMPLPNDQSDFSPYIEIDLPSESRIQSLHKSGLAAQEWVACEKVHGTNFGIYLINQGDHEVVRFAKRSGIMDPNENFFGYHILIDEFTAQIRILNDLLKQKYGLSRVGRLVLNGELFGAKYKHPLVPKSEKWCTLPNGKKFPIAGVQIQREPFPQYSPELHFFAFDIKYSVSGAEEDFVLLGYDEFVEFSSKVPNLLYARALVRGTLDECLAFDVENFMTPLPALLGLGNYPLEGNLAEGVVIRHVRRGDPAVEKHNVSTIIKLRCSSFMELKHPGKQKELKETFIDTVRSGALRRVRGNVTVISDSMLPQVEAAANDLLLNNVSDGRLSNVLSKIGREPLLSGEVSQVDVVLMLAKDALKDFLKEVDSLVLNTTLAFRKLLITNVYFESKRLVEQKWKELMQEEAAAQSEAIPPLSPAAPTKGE

For the compound `CC(C)NC(=O)N1[C@H](C#N)[C@H](c2ccc(-c3ccc(F)cc3)cc2)[C@H]1CO`, the AC50 (usually the midpoint of the concentration-response curve, whichever way the signal moves) in assay [1] is 79.5 µM (active); in assay [2], 2.93 µM (active); in assay [3] it was 469 nM (active); in assay [4], 25.6 µM (active); in assay [5] it was 442 nM (active); in assay [6], 18.2 µM (active). In addition, the AC50 in assay [7] is 858 nM (active).
Regarding `COc1cccc(-c2ccc([C@H]3[C@@H](CO)N(C(=O)Cc4ccccc4)[C@H]3C#N)cc2)c1`, the AC50 in [8] was 6.07 µM (active); in assay [9] it was 25.5 µM (active); in assay [10], > 70 µM (inactive); in [11], 10.8 µM (active); in assay [12], 34.4 µM (active); in assay [13], 19.5 µM (active).
`C[C@@H]1CN([C@H](C)CO)C(=O)c2c(c3ccccc3n2C)-c2ccccc2CO[C@@H]1CN(C)S(=O)(=O)c1ccc([N+](=O)[O-])cc1`: the AC50 in assay [14] is 7.62 µM (active).
Take `CC(C)(O)c1ccccc1CC[C@@H](SCC1(CC(=O)O)CC1)c1cccc(/C=C/c2ccc3ccc(Cl)cc3n2)c1` [MONTELUKAST SODIUM]: the IC50 in [15] was 20.7 µM (inactive); in assay [16], 6.18 µM (active); in [17], > 40 µM (inactive); in [19], 20.6 µM (active). The EC50 – broadly, the concentration that produces a half-maximal response – in assay [18] was 3.41 µM (active); in assay [20], 1.19 µM (active); in assay [21], 7.96 µM (active).
`C/N=c1\scc(C)n1/N=C/c1ccc(O)c(O)c1O`: the EC50 in assay [22] was > 300 µM (inconclusive). The IC50 is > 96.6 µM (inactive) in [23]; 2.72 µM (active) in assay [24]; 49.8 µM (inconclusive) in assay [25]; > 50 µM (not active) in assay [26]; > 100 µM (active) in [27]; > 50 µM (not active) in assay [28]. In addition, the IC50 is 44 µM (inactive) in assay [29], > 94.1 µM (inactive) in assay [30] and 13.9 µM (active) in assay [31].
Regarding `O=Cc1ccc(O)c(O)c1O`, the IC50 in assay [32] is > 20 µM (inactive); in assay [33], > 10 µM (inactive); in [34] it was > 20 µM (inactive); in [35], > 20 µM (inactive); in assay [36] it was 141 nM (active); in assay [37], > 20 µM (inactive). In addition, in assay [38], the IC50 is > 10 µM (inactive).
Take `CCOc1ccccc1NC(=O)c1cccc(NC(=O)c2ccccc2)c1`: the IC50 in assay [39] was 121 nM (active); in [40], 1.43 µM (active); in [41], 60 nM (active); in assay [42] it was 2.14 µM (active).
